Holding throughout (format): cell-based, human
In assay [1] the test system is iPSCs (TC1133). As to the kind of experiment: Long-term suspension culture of iPSCs in ambr15 bioreactor with automated passaging, ROCKi vs TZV (Example 1): aggregate size and expansion. The following applies: for aggregate size: end of all passages except passage 0, ROCK inhibitor used during passaging. On the procedure: (§1) • 13 ml with 2.5×10^5 cells/ml per vessel in passage 0; 5×10^5 cells/ml per vessel at all other passages. • Medium Change: 62% Exchange per day • Cells: TC1133, NINDS • Culture conditions: 37° C., pH 7.4, dO 23.8%, 300 rpm downstirr.
(§2) • 1. Y27632 treatment of iPSC aggregates at a final concentration of 10 μM two hours before dissociation. • 2. Two times washing with Versene: Stop of stirring for two minutes, removal of medium to 2 mL without disturbing sedimented aggregates, addition of Versene to 10 mL, starting the stirring (300 rpm, downwards) for 10 seconds. • 3. Removal of medium to 2 mL in the same way as described in the washing steps and addition of Versene to 5 mL. • 4. Stirring at 600 rpm for up to 15 min until dissociation is sufficient. […] Reduce stirring to 300 rpm. • 6. Cell count. • 7. Transfer a volume of cell suspension into a fresh ambr15 vessel resulting in a seeding concentration of 2-5×10^5 cells/mL, thereby diluting the cell dissociation reagent by addition of an excess volume (at least 5-fold) of iPS-Brew
(§3) • ambr15 cell culture 24 Disposable bioreactors, Low temp, no sparge, Part number: 001-2B81 • StemMACS iPS-Brew XF, Basal Medium, Order no.: 130-107-086 • StemMACS™ iPS-Brew XF 50× Supplement; Order no.: 130-107-087 • ROCKi Y27632; Stemolecule • Versene Solution, Cat No.: 15040-033 • Ambr15 bioreactor, Sartorius Stedim • Nucleocounter NC-200 Type 900-0201 • Cellavista Cell Imager • Flow Cytometer: BD LSR II Special Order System

For assay [2], the system named is iPSCs (TC1133); OCT4, TRA-1-60. As to the kind of experiment: Expression of pluripotency-related genes at end of passages in long-term suspension culture (Example 1). The method, then:
as §1
as §2, with “iPS-Brew […]” for “iPS-Brew”

In assay [3] the test system is iPSCs (TC1133). As to the kind of experiment: Effect of ROCKi pretreatment (4 h) on passaging of iPSCs in suspension (Example 4): aggregate size and expansion rate. On the procedure: as §1
as §2, with “Y27632 treatment of iPSC aggregates at a final concentration of 10 μM two hours before dissociation. • 2.” left out
as §3
The aim of this example was to analyze the effects of ROCKi pretreatment on passaging of iPSCs in suspension.

In assay [4] the test system is iPSCs (TC1133); OCT4, NANOG, TRA-1-60. As to the kind of experiment: Effect of ROCKi pretreatment (4 h) on expression of pluripotency-related markers in iPSCs (Example 4). On the procedure:
as §1
• 1. Y27632 treatment of iPSC aggregates at a final concentration of 10 μM two hours before dissociation. • 2. Two times washing with Versene: Stop of stirring for two minutes, removal of medium to 2 mL without disturbing sedimented aggregates, addition of Versene to 10 mL, starting the stirring (300 rpm, downwards) for 10 seconds. • 3. Removal of medium to 2 mL in the same way as described in the washing steps and addition of Versene to 5 mL. • 4. Stirring at 600 rpm for up to 15 min until dissociation is sufficient. In progress controls have to be observed microscopically to assess the right degree of dissociation. • 5. Reduce stirring to 300 rpm. • 6. Cell count. • 7. Transfer a volume of cell suspension into a fresh ambr15 vessel resulting in a seeding concentration of 2-5×10^5 cells/mL, thereby diluting the cell dissociation reagent by addition of an excess volume (at least 5-fold) of iPS-Brew
as §3
The aim of this example was to analyze the effects of ROCKi pretreatment on passaging of iPSCs in suspension. Example 4 was performed like Examples 1-3 except that the ROCKi pretreatment was performed for 4 h.

Setting [5] is: day 3 after passaging, with ROCKi pretreatment.
The mark [6] stands for this setting: day 4 of passage 0 (day of passaging, cells to be pretreated).
Where [7] appears, read: day 3 after passaging, ROCKi pretreated.
The mark [8] stands for this setting: day 5 after passaging, ROCKi pretreated.

SMILES strings stand for the structures.

For the molecule `O=C(NCc1ccccc1)c1csc(Nc2ccncn2)n1` [TZV, thiazovivin], the aggregate size result in the assay with iPSCs (TC1133) [1] was “about 200 μm”. In the assay on iPSCs (TC1133) [1] (iPSCs passaged with TZV compared with ROCKi), the “expansion rates of iPSCs relative to ROCKi treated cells” value was “comparable”. In addition, the “expression of pluripotency-related genes” value in assay [2] (end of passage 0, 2 and 3) is given as “high”.
On to `C[C@@H](N)[C@H]1CC[C@H](C(=O)Nc2ccncc2)CC1` [ROCKi, Y27632], for which the accumulated fold increase with iPSCs (TC1133) [1] (after 43 days, 8 passages, calculated from starting cell numbers and splitting ratios) is reported as 9.6×10^6. The results for the aggregate size entry with iPSCs (TC1133) [1], in the assay with iPSCs (TC1133) [3] (setting [5]) and with iPSCs (TC1133) [3] (setting [6]) were “about 200 μm”, 162.06±53 μm and 197.41±75 μm, respectively. The expansion rate with iPSCs (TC1133) [3] (setting [5]) is listed as 3.14 fold increase; in the assay with iPSCs (TC1133) [3] (setting [6]) it was 12.34 fold increase; in the assay on iPSCs (TC1133) [3] (day 5 after passaging, with ROCKi pretreatment), 9.2 fold increase. Besides, the NANOG expression in assay [4] (setting [7]) is 93.6%; in assay [4] (setting [6]), 96.9%; in assay [4] (setting [8]) it was 81.8%. The OCT4 expression in assay [4] (setting [7]) was found to be 95.9%; in assay [4] (setting [6]), 97.8%; in assay [4] (setting [8]) it was 94.4%. Besides, the TRA-1-60 expression in assay [4] (setting [7]) was 99.1%; in assay [4] (setting [6]) it was 99.3%; in assay [4] (setting [8]) it was 98.7%. Besides, in assay [2] (end of every analyzed passage), the “expression of pluripotency-related genes (OCT4, TRA-1-60)” value is recorded as “high”.

The record behind these values is patent US20230059873A1, “EXPANSION OF STEM CELLS IN SUSPENSION IN A BIOREACTOR” (REPAIRON GMBH, priority 2019, published 2023).
